From BigSolDB 2.1

O=c1c(O)c(-c2ccc(O)c(O)c2)oc2cc(O)cc(O)c12
solubility (mole fraction)
Conditions	292.8 K	298.6 K	303.2 K	308.6 K	314.1 K	318.8 K	322.2 K	325.6 K	331.2 K	333.8 K
in ethanol	0.00135	0.00153	0.00165	0.00178	0.00193	0.00207	0.00218	0.0023	0.0025	0.00255
in methanol	0.000845	0.000919	0.000957	0.00104	0.00113	0.00127	0.00133	0.00142	0.00159	0.00163
in water	5.04e-05	5.51e-05	5.85e-05	6.18e-05	6.53e-05	6.7e-05	6.91e-05	7.13e-05	7.38e-05	7.53e-05
